Measured values taken from publication PMC9227781, “Inhibitors of O-Acetylserine Sulfhydrylase with a Cyclopropane-Carboxylic Acid Scaffold Are Effective Colistin Adjuvants in Gram Negative Bacteria” (Pharmaceuticals, 2022).
Where two headings read alike, the source gives them in different places.

Tests used:
StOASS-A = molecular target: T1, StOASS-A (Salmonella typhimurium, UniProt P0A1E3); assay: Fluorescence binding assay on purified recombinant StOASS-A; set-up: species or system S. Typhimurium
T1 construct: His-tag (with TEV site) (cleaved yes); made in house; host or cells: E. coli Rosetta (DE3)
T1 sequence (P0A1E3 whole entry): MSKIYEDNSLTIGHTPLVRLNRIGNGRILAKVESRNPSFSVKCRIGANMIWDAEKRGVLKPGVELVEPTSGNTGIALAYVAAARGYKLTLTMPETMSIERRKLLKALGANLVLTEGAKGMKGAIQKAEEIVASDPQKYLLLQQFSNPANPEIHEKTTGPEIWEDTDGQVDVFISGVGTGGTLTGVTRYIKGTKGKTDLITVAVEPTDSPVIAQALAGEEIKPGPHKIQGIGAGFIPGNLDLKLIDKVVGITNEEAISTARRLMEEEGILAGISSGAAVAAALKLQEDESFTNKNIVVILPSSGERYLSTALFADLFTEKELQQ
Description: (§1) The affinity of the compounds for StOASS-A and StOASS-B was determined on the purified recombinant proteins by an in vitro fluorescence binding assay. Measurements were carried out at 20 °C in a 3 mm pathlength quartz microcuvette in 100 mM HEPES, 5% DMSO (Applichem, Darmstadt, Germany), pH 7.0, using a Fluoromax-4 (Horiba Jobin-Yvon, Kyoto, Japan) spectrofluorometer. Emission spectra of solutions containing 0.2–1.0 μM StOASS, upon excitation of the pyridoxal 5′-phosphate cofactor at 412 nm, in the presence of increasing concentrations of compounds were collected; fluorescence intensities at 500 nm were plotted to compound concentration and data were fitted to a binding isotherm: I=I0+ΔI·compound/KD+compound where I is the fluorescence emission intensity at 500 nm in the presence of a given concentration of compound, I0 is the initial fluorescence emission in the absence of ligands, ΔI is the amplitude of the fluorescence emission change and KD is the dissociation constant. When the KD was lower than the protein concentration, data were fitted to the quadratic equation: I=I0+ΔI·OASS+compound+KD−OASS+compound+KD^2−4·OASS·compound/2
(§2) Data were collected in duplicate.
(§3) Esters were tested up to a concentration of 100 μM and no binding was observed.

StOASS-B = molecular target: T2, StOASS-B (Salmonella typhimurium, UniProt P29848); assay: Fluorescence binding assay on purified recombinant StOASS-B
T2 construct: His-tag (with TEV site) (cleaved yes); made in house; host or cells: E. coli Rosetta (DE3)
T2 sequence (P29848 1-303): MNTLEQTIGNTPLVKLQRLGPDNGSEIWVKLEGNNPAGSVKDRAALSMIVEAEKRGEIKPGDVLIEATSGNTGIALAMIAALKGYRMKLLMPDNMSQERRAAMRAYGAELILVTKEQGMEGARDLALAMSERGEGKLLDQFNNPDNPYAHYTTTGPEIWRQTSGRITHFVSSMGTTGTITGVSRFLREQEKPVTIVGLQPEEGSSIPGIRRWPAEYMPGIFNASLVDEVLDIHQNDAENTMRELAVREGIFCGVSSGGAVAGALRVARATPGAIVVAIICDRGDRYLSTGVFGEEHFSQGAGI
Description: as §1, §2, §3

E. coli ATCC 25922 = assay: MIC by broth microdilution, E. coli; format: cell-based, Escherichia coli; conditions: Escherichia coli, ATCC25922; compound alone, MHB, 24 h at 37 °C; read-out: MIC (μg/mL) E.coli ATCC 25922
Description: (§4) MIC values were evaluated following CLSI guidelines with some modifications, as referred to in previous work. Twofold dilutions 25.6–0.05 mg/mL of the tested compounds were performed in DMSO in separate 96-well microtiter U-plates (Greiner, Milan, Italy). In a different 96-well microtiter U-plate, for each well of the replicates, 49 µL of broth medium were added. Then, in each well of the plate, one microliter of each compound at variable dilution in DMSO was added. For each test, three independent experiments with three replicates each were performed. Tested reference bacterial strains (E. coli ATCC25922; S. Typhimurium ATCC14028; K. pneumoniae ATCC13883) were brought to the logarithmic phase of growth in MHB medium by incubation at 37 °C for 24 h. After incubation, bacterial suspensions were centrifuged (2000 rpm, 4 °C for 20 min), and then the pellets were resuspended in 100 mM phosphate buffer, pH 7.0, to reach a final bacterial concentration of 10^8 CFU/mL, adjusted by spectrophotometry (OD620nm ranged between 0.08–0.13). The obtained suspensions were further diluted 1:100 in broth medium to reach a bacterial concentration of 10^6 CFU/mL. Fifty µL of the bacterial suspension containing 10^6 CFU/mL were inoculated into each well within 30 min, to obtain a final concentration of 5 × 10^5 CFU/mL in a total volume of 100 µL. The final dilution range tested was 256–0.5 µg/mL. Growth and sterility controls were performed for each strain and for each tested compound. Plates were then incubated for 24 h at 37 °C in a static aerobic atmosphere. After incubation, plates were read by unaided eye with a microtiter reading mirror and then the OD of each well of the plates was measured spectrophotometrically at 620 nm. MIC values were calculated as the arithmetic mean ± standard deviation (SD) of the unaided eye reading and the inhibition of growth for each tested dilution was calculated from the OD values (mean ± SD). A quality control microorganism (E. coli ATCC 25922) was tested periodically to validate the accuracy of the procedure.

S. Typhimurium ATCC14028 = assay: MIC by broth microdilution, S. Typhimurium; format: cell-based, Salmonella enterica serovar Typhimurium; conditions: Salmonella enterica; compound alone, MHB, 24 h at 37 °C; read-out: MIC (μg/mL) S. Typhimurium ATCC14028
Description: as §4

K. pneumoniae ATCC13883 = assay: MIC by broth microdilution, K. pneumoniae; format: cell-based, Klebsiella pneumoniae; conditions: Klebsiella pneumoniae, ATCC13883; compound alone, MHB, 24 h at 37 °C; read-out: MIC (μg/mL) K. pneumoniae ATCC13883
Description: as §4

MDBK cells = assay: Cytotoxicity assay (MTT) on MDBK cells; format: cell-based, bovine; conditions: 32, 16, 8 µg/mL; MTT test
Description: The cytotoxicity assay was performed using the 3-(4,5-dimethylthiazol-2-yl)-2,5-diphenyltetrazolium bromide (MTT) test, following the procedure used by Donofrio et al.. MDBK cells were cultured on microtiter tissue culture plates in DMEM medium for 24 h at 37 °C in the presence of 5% CO2. After incubation, when the cell monolayer was at confluence, an aliquot of 1 µL of UPAR415 in DMSO at different concentrations was added in each well, containing a volume of 100 µL of DMEM medium and MDBK cells, and then the plates were reincubated at the same conditions. After incubation, 10 µL of MTT at 200 mg/mL (3-(4,5-dimethylthiazol-2-yl)-2,5-diphenyltetrazolium bromide) was added to each well and incubated at 37 °C for 6 h. At the end of the incubation, 100 µL of the solubilization solution (10% SDS in 0.01 M HCl) was added to each well and then incubated overnight. The MTT compound, a yellow tetrazolium salt, is reduced by mitochondrial enzymes (succinate dehydrogenase) of metabolically active eukaryotic cells to insoluble formazan crystals. In the presence of metabolically active cells, after the addition of a detergent solution (10% SDS in […]) that allows the formazan to be released from the cells, a violet color is seen in the medium. Instead, in the presence of non-viable cells, MTT is not reduced to formazan and therefore the solution will remain yellow.
After incubation, plates were read with a spectrophotometer at 620 nm. Positive controls (PC)—without any compounds—and PCs with 1% DMSO were performed for each plate and three replicates for two independent experiments were performed for each assay.

[1] = 20 °C, 100 mM HEPES, 5% DMSO, pH 7.0, racemic mixture, esters tested up to 100 μM
[2] = 20 °C, 100 mM HEPES, 5% DMSO, pH 7.0, racemic mixture, esters tested up to 100 μM, read-out: KD (μM) OASS-A

SMILES	KD (μM) OASS-A (StOASS-A; [1])	KD (μM) OASS-B (StOASS-B; [1])	MIC (E. coli ATCC 25922) [µg/mL]	MIC (S. Typhimurium ATCC14028) [µg/mL]	MIC (K. pneumoniae ATCC13883) [µg/mL]	Toxicity on viability of MDBK cells (MDBK cells)	Kd (StOASS-A) [µM]	Kd (StOASS-B; 20 °C, 100 mM HEPES, 5% DMSO, pH 7.0, racemic mixture, esters tested up to 100 μM, read-out: KD (μM) OASS-B) [µM]	Kd (StOASS-A; [2]) [µM]	Kd (StOASS-B) [µM]
CCOC(=O)[C@]1(Cc2ccc(C)cc2)C[C@H]1c1cccc(-c2cn[nH]c2)c1 (relative stereo) [Compound 8c, trans-ethyl 2-(3-(1H-pyrazol-4-yl)phenyl)-1-(4-methylbenzyl)cyclopropanecarboxylate]	No binding	No binding	> 512	> 512	> 512	high toxicity profiles				
Cc1ccc(C[C@@]2(C(=O)O)C[C@H]2c2cccc(N3CCNCC3)c2)cc1 (relative stereo) [Compound 21i, trans-1-(4-methylbenzyl)-2-(3-(piperazin-1-yl)phenyl)cyclopropanecarboxylic acid]	good activity	detrimental effect	> 512	> 512	> 512		0.45 ± 0.09	83.8 ± 16.1		
CCOC(=O)[C@]1(Cc2ccc(C)cc2)C[C@H]1c1cccc(-c2ccccc2)c1 (relative stereo) [Compound 8d, trans-ethyl 2-([1,1′-biphenyl]-3-yl)-1-(4-methylbenzyl)cyclopropanecarboxylate]	No binding	No binding	> 512	> 512	> 512					
CCOC(=O)C1(Cc2ccc(C)cc2)CC1c1cccc(-c2c[nH]nc2C)c1 (centres unmarked) [Compound 8b, ethyl 2-(3-(3-methyl-1H-pyrazol-4-yl)phenyl)-1-(4-methylbenzyl)cyclopropanecarboxylate]	No binding	No binding	> 512	> 512	> 512	high toxicity profiles				
Cc1ccc(C[C@@]2(C(=O)O)C[C@H]2c2cccc(-c3cccc(F)c3)c2)cc1 (relative stereo) [Compound 9f, trans-2-(3′-fluoro-[1,1′-biphenyl]-3-yl)-1-(4-methylbenzyl)cyclopropanecarboxylic acid]	low nanomolar range		> 512	> 512	> 512				0.051 ± 0.004	1.45 ± 0.31
Cc1ccc(C[C@@]2(C(=O)O)C[C@H]2c2cccc(-c3cn[nH]c3)c2)cc1 (relative stereo) [Compound 9c, trans-2-(3-(1H-pyrazol-4-yl)phenyl)-1-(4-methylbenzyl)cyclopropanecarboxylic acid]			> 512	> 512	> 512				1.01 ± 0.38	3.05 ± 0.18
Cc1ccc(C[C@@]2(C(=O)O)C[C@H]2c2cccc(N3CCOCC3)c2)cc1 (relative stereo) [Compound 13g, trans-1-(4-methylbenzyl)-2-(3-morpholinophenyl)cyclopropanecarboxylic acid]			> 512	> 512	> 512				0.1 ± 0.01	3.86 ± 0.29
Cc1ccc(C[C@@]2(C(=O)O)C[C@H]2c2cccc(-c3ccccc3)c2)cc1 (relative stereo) [Compound 9d, trans-2-([1,1′-biphenyl]-3-yl)-1-(4-methylbenzyl)cyclopropanecarboxylic acid]			> 512	> 512	> 512				2.51 ± 0.61	6.8 ± 1.1
Cc1ccc(C[C@@]2(C(=O)O)C[C@H]2c2cccc(-c3cnc(N)nc3)c2)cc1 (relative stereo) [Compound 9a, trans-2-(3-(2-aminopyrimidin-5-yl)phenyl)-1-(4-methylbenzyl)cyclopropanecarboxylic acid]			> 512	> 512	> 512				0.57 ± 0.16	1.29 ± 0.09
CCOC(=O)C1(Cc2ccc(C)cc2)CC1c1cccc(-c2cnc(N)nc2)c1 (centres unmarked) [Compound 8a, ethyl 2-(3-(2-aminopyrimidin-5-yl)phenyl)-1-(4-methylbenzyl)cyclopropanecarboxylate]			> 512	> 512	> 512					
Cc1ccc(C[C@@]2(C(=O)O)C[C@H]2c2cccc(-c3cc(O)cc(F)c3)c2)cc1 (relative stereo) [Compound 9e, trans-2-(3′-fluoro-5′-hydroxy-[1,1′-biphenyl]-3-yl)-1-(4-methylbenzyl)cyclopropanecarboxylic acid]	low nanomolar range		> 512	> 512	> 512				0.035 ± 0.003	0.61 ± 0.08
Cc1ccc(C[C@@]2(C(=O)O)C[C@H]2c2cccc(N3CCN(C)CC3)c2)cc1 (relative stereo) [Compound 21j, trans-1-(4-methylbenzyl)-2-(3-(4-methylpiperazin-1-yl)phenyl)cyclopropanecarboxylic acid]	good activity	detrimental effect	> 512	> 512	> 512				0.25 ± 0.06	23.6 ± 4.5
Cc1ccc(C[C@@]2(C(=O)O)C[C@H]2c2cccc(-c3c[nH]nc3C)c2)cc1 (relative stereo) [Compound 9b, trans-2-(3-(3-methyl-1H-pyrazol-4-yl)phenyl)-1-(4-methylbenzyl)cyclopropanecarboxylic acid]			> 512	> 512	> 512				1.86 ± 0.76	2.63 ± 0.04
